Reference: PubChem BioAssay AID1259407 (Chemical Carcinogenesis Research Information System (CCRIS), 2018)
Activity calls are given as the source filed them. How the calls were made is not given here.

Tested on: CCRIS mutagenicity, Ames/micronucleus/aberration tests
Test: CCRIS mutagenicity studies
[1] = Test System: AMES SALMONELLA TYPHIMURIUM, Strain/Indicator: TA98, Metabolic Activation: NONE, Method: PREINCUBATION
[2] = Test System: AMES SALMONELLA TYPHIMURIUM, Strain/Indicator: TA100, Metabolic Activation: NONE, Method: PREINCUBATION
[3] = Test System: AMES SALMONELLA TYPHIMURIUM, Strain/Indicator: TA98, Metabolic Activation: RAT, LIVER, S-9, AROCLOR 1254, Method: PREINCUBATION
[4] = Test System: AMES SALMONELLA TYPHIMURIUM, Strain/Indicator: TA100, Metabolic Activation: RAT, LIVER, S-9, AROCLOR 1254, Method: PREINCUBATION
[5] = Test System: AMES SALMONELLA TYPHIMURIUM, Strain/Indicator: TA98, Metabolic Activation: RAT, LIVER, S-9, AROCLOR 1254 (10%), Method: PREINCUBATION
[6] = Test System: AMES SALMONELLA TYPHIMURIUM, Strain/Indicator: TA100, Metabolic Activation: RAT, LIVER, S-9, AROCLOR 1254 (10%), Method: PREINCUBATION
[7] = Test System: AMES SALMONELLA TYPHIMURIUM, Strain/Indicator: TA100, Metabolic Activation: NONE, Method: STANDARD PLATE
[8] = Test System: AMES SALMONELLA TYPHIMURIUM, Strain/Indicator: TA102, Metabolic Activation: NONE, Method: PREINCUBATION

Structure (SMILES): O=S(=O)(O)c1ccc2c(N=Nc3ccccc3)c(O)ccc2c1
- mutagenic call [1]: inactive; negative
- mutagenic call (Test System: AMES SALMONELLA TYPHIMURIUM, Strain/Indicator: TA98, Metabolic Activation: RAT, LIVER, S-9, PHENOBARBITAL, Method: PREINCUBATION): inactive; negative
- mutagenic call [2]: inactive; negative
- mutagenic call (Test System: AMES SALMONELLA TYPHIMURIUM, Strain/Indicator: TA100, Metabolic Activation: RAT, LIVER, S-9, PHENOBARBITAL, Method: PREINCUBATION): inactive; negative

Structure (SMILES): COc1cc(OC)c2c(c1)O[C@@H]1OC=C[C@H]21
- mutagenic call [1]: inactive; negative
- mutagenic call [3]: active; positive
- mutagenic call [2]: active; positive
- mutagenic call [4]: active; positive

Structure (SMILES): C=CC(=O)OCCOCCOCCOCCOC(=O)C=C
- mutagenic call (Test System: AMES SALMONELLA TYPHIMURIUM, Strain/Indicator: TA98, Metabolic Activation: HAMSTER, LIVER, S-9, AROCLOR 1254 (10%), Method: PREINCUBATION): inactive; negative
- mutagenic call [1]: inactive; negative
- mutagenic call [5]: inactive; negative
- mutagenic call (Test System: AMES SALMONELLA TYPHIMURIUM, Strain/Indicator: TA100, Metabolic Activation: HAMSTER, LIVER, S-9, AROCLOR 1254 (10%), Method: PREINCUBATION): inactive; negative
- mutagenic call [2]: inactive; negative
- mutagenic call [6]: inactive; negative
- mutagenic call (Test System: AMES SALMONELLA TYPHIMURIUM, Strain/Indicator: TA1535, Metabolic Activation: HAMSTER, LIVER, S-9, AROCLOR 1254 (10%), Method: PREINCUBATION): inactive; negative
- mutagenic call (Test System: AMES SALMONELLA TYPHIMURIUM, Strain/Indicator: TA1535, Metabolic Activation: NONE, Method: PREINCUBATION): inactive; negative
- mutagenic call (Test System: AMES SALMONELLA TYPHIMURIUM, Strain/Indicator: TA1535, Metabolic Activation: RAT, LIVER, S-9, AROCLOR 1254 (10%), Method: PREINCUBATION): inactive; negative
- mutagenic call (Test System: AMES SALMONELLA TYPHIMURIUM, Strain/Indicator: TA1537, Metabolic Activation: HAMSTER, LIVER, S-9, AROCLOR 1254 (10%), Method: PREINCUBATION): inactive; negative
- mutagenic call (Test System: AMES SALMONELLA TYPHIMURIUM, Strain/Indicator: TA1537, Metabolic Activation: NONE, Method: PREINCUBATION): inactive; negative
- mutagenic call (Test System: AMES SALMONELLA TYPHIMURIUM, Strain/Indicator: TA1537, Metabolic Activation: RAT, LIVER, S-9, AROCLOR 1254 (10%), Method: PREINCUBATION): inactive; negative
- mutagenic call (Test System: CHINESE HAMSTER OVARY, Strain/Indicator: CHO-K1-BH4 (HGPRT)/6-THIOGUANINE, Metabolic Activation: NONE, Method: SUSPENSION/PLATE): active; positive
- mutagenic call (Test System: CHINESE HAMSTER OVARY, Strain/Indicator: CHO-K1-BH4 (HGPRT), Metabolic Activation: NONE, Method: MONOLAYER): active; positive
- mutagenic call (Test System: CHINESE HAMSTER OVARY, Strain/Indicator: CHO-K1-BH4 (HGPRT), Metabolic Activation: NONE, Method: SUSPENSION/PLATE): active; positive
- mutagenic call (Test System: MOUSE LYMPHOMA, Strain/Indicator: L5178Y (TK+/TK-), Metabolic Activation: NONE, Method: SUSPENSION/PLATE): active; positive

Structure (SMILES): CCc1nc2ccc(NC)c(C)c2nc1CC
- mutagenic call [1]: inactive; negative
- mutagenic call (Test System: AMES SALMONELLA TYPHIMURIUM, Strain/Indicator: TA98, Metabolic Activation: RAT, LIVER, S-9, PCB, Method: PREINCUBATION): active; positive
- mutagenic call [2]: inactive; negative
- mutagenic call (Test System: AMES SALMONELLA TYPHIMURIUM, Strain/Indicator: TA100, Metabolic Activation: RAT, LIVER, S-9, PCB, Method: PREINCUBATION): active; positive

Structure (SMILES): COc1ccc2cc(CCC(C)=O)ccc2c1
- mutagenic call (Test System: AMES SALMONELLA TYPHIMURIUM, Strain/Indicator: TA97, Metabolic Activation: NONE, Method: STANDARD PLATE): inactive; negative
- mutagenic call (Test System: AMES SALMONELLA TYPHIMURIUM, Strain/Indicator: TA97, Metabolic Activation: S-9, Method: STANDARD PLATE): inactive; negative
- mutagenic call (Test System: AMES SALMONELLA TYPHIMURIUM, Strain/Indicator: TA98, Metabolic Activation: NONE, Method: STANDARD PLATE): inactive; negative
- mutagenic call (Test System: AMES SALMONELLA TYPHIMURIUM, Strain/Indicator: TA98, Metabolic Activation: S-9, Method: STANDARD PLATE): inactive; negative
- mutagenic call [7]: inactive; negative
- mutagenic call (Test System: AMES SALMONELLA TYPHIMURIUM, Strain/Indicator: TA100, Metabolic Activation: S-9, Method: STANDARD PLATE): inactive; negative
- mutagenic call (Test System: AMES SALMONELLA TYPHIMURIUM, Strain/Indicator: TA102, Metabolic Activation: NONE, Method: STANDARD PLATE): inactive; negative
- mutagenic call (Test System: AMES SALMONELLA TYPHIMURIUM, Strain/Indicator: TA102, Metabolic Activation: S-9, Method: STANDARD PLATE): inactive; negative

Structure (SMILES): N#Cc1cccc2c([N+](=O)[O-])cccc12
- mutagenic call [7]: active; positive
- mutagenic call (Test System: AMES SALMONELLA TYPHIMURIUM, Strain/Indicator: TA100, Metabolic Activation: S-9 MIX, Method: STANDARD PLATE): active; positive

Structure (SMILES): COc1cc2c(c3oc(=O)c4c(c13)CCC4=O)[C@H]1[C@@H](O2)O[C@@H]2O[C@@H]21
- mutagenic call [1]: active; positive
- mutagenic call [3]: active; positive
- mutagenic call (Test System: AMES SALMONELLA TYPHIMURIUM, Strain/Indicator: TA100, Metabolic Activation: NONE, Method: MICROSUSPENSION): active; positive
- mutagenic call [2]: active; positive
- mutagenic call (Test System: AMES SALMONELLA TYPHIMURIUM, Strain/Indicator: TA100, Metabolic Activation: RAT, LIVER, S-9, AROCLOR 1254, Method: MICROSUSPENSION): active; positive
- mutagenic call [4]: active; positive

Structure (SMILES): c1ccc2c(c1)c1ccccc1c1ccccc21
- mutagenic call (Test System: AMES SALMONELLA TYPHIMURIUM, Strain/Indicator: TA98, Metabolic Activation: RAT, LIVER, S-9, AROCLOR 1254, Method: FLUCTUATION): active; positive
- mutagenic call (Test System: AMES SALMONELLA TYPHIMURIUM, Strain/Indicator: TA100, Metabolic Activation: RAT, LIVER, S-9, AROCLOR 1254, Method: STANDARD PLATE): active; positive

Structure (SMILES): Cc1cc(C)c2nc3c(ccc4ccccc43)c(C)c2c1
- mutagenic call (Test System: AMES SALMONELLA TYPHIMURIUM, Strain/Indicator: TA97A, Metabolic Activation: NONE, Method: PREINCUBATION): inactive; negative
- mutagenic call [1]: active; positive
- mutagenic call [2]: active; positive
- mutagenic call [8]: inactive; negative

Structure (SMILES): O=C(O)c1ccc(/C=N/n2nnc3c([nH]c4ccccc43)c2=O)cc1
- mutagenic call (Test System: AMES SALMONELLA TYPHIMURIUM, Strain/Indicator: TA97, Metabolic Activation: NONE, Method: PREINCUBATION): active; positive
- mutagenic call (Test System: AMES SALMONELLA TYPHIMURIUM, Strain/Indicator: TA97, Metabolic Activation: RAT, LIVER, S-9, AROCLOR 1254 (10%), Method: PREINCUBATION): active; positive
- mutagenic call [1]: active; positive
- mutagenic call [5]: active; positive
- mutagenic call [2]: active; positive
- mutagenic call [6]: active; positive
- mutagenic call [8]: inactive; negative
- mutagenic call (Test System: AMES SALMONELLA TYPHIMURIUM, Strain/Indicator: TA102, Metabolic Activation: RAT, LIVER, S-9, AROCLOR 1254 (10%), Method: PREINCUBATION): active; positive

Structure (SMILES): O=[N+]([O-])c1cccc2c(Cl)nsc12
- mutagenic call [7]: active; positive

Structure (SMILES): CC(=O)c1cccc(N=[N+]([O-])c2ccc(N)c(C(C)=O)c2C)c1C
- mutagenic call [1]: inactive; negative
- mutagenic call (Test System: AMES SALMONELLA TYPHIMURIUM, Strain/Indicator: TA98, Metabolic Activation: RAT, LIVER, S-9, PHENOBARBITAL AND 5,6-BENZOFLAVONE, Method: PREINCUBATION): inactive; negative
- mutagenic call [2]: inactive; negative
- mutagenic call (Test System: AMES SALMONELLA TYPHIMURIUM, Strain/Indicator: TA100, Metabolic Activation: RAT, LIVER, S-9, PHENOBARBITAL AND 5,6-BENZOFLAVONE, Method: PREINCUBATION): inactive; negative
